Laboratory results reported in ChEMBL document CHEMBL1130866, “Conodiparines A-D, new bisindoles from Tabernaemontana. Reversal of vincristine-resistance with cultured cells” (Bioorg Med Chem Lett, 1998).
Converted amounts (≈) assume the structure as drawn.

Experiments:
Type in all cases: functional, cell-based
KB [1] = assay: Compound was evaluated for its cytotoxicity against vincristine-sensitive KB/S human oral epidermoid carcinoma cell lines.
KB [2] = assay: Compound was evaluated for its cytotoxicity against vincristine-resistant KB/VJ300 human oral epidermoid carcinoma cell lines.
KB [3] = assay: Compound was evaluated for its cytotoxicity against vincristine-resistant KB/VJ300 human oral epidermoid carcinoma cell lines, with added vincristine 0.25 ug/mL.

CC[C@]1(O)C[C@H]2CN(CCc3c([nH]c4ccccc34)[C@@](C(=O)OC)(c3cc4c(cc3OC)N(C=O)[C@H]3[C@@](O)(C(=O)OC)[C@H](OC(C)=O)[C@]5(CC)C=CCN6CC[C@]43[C@@H]65)C2)C1 [VINCRISTINE]
IC50 (KB [1]): 0.014 µg/mL (≈ 0.017 µM) | IC50 (KB [2]): 1.05 µg/mL (≈ 1.27 µM)

C/C=C1\CN(C)[C@H]2Cc3c([nH]c4ccccc34)[C@@H](c3cc4c5c([nH]c4cc3OC)[C@]3(C(=O)OC)C[C@@H]4C[C@H]([C@H](C)O)C3N(CC5)C4)C[C@H]1[C@]2(CO)C(=O)OC
IC50 (KB [1]): 19.2 µg/mL (≈ 25.6 µM) | IC50 (KB [3]): 1.45 µg/mL (≈ 1.93 µM) | IC50 (KB [2]): 13.5 µg/mL (≈ 18 µM)

C/C=C1/CN(C)[C@H]2Cc3c([nH]c4ccccc34)[C@@H](c3c(OC)ccc4c5c([nH]c34)[C@]3(C(=O)OC)C[C@@H]4C[C@H]([C@H](C)O)C3N(CC5)C4)C[C@H]1[C@]2(CO)C(=O)OC
IC50 (KB [1]): 20.8 µg/mL (≈ 27.7 µM) | IC50 (KB [3]): 2.45 µg/mL (≈ 3.26 µM) | IC50 (KB [2]): 15 µg/mL (≈ 20 µM)

C/C=C1/CN(C)[C@H]2Cc3c([nH]c4ccccc34)[C@@H](c3c(OC)ccc4c5c([nH]c34)[C@]3(C(=O)OC)C[C@@H]4C[C@H](C(C)=O)C3N(CC5)C4)C[C@H]1[C@]2(CO)C(=O)OC
IC50 (KB [1]): 18.6 µg/mL (≈ 24.8 µM) | IC50 (KB [3]): 4.6 µg/mL (≈ 6.14 µM) | IC50 (KB [2]): 13.6 µg/mL (≈ 18.2 µM)

C/C=C1/CN(C)[C@H]2Cc3c([nH]c4ccccc34)[C@@H](c3cc4c5c([nH]c4cc3OC)[C@]3(C(=O)OC)C[C@@H]4C[C@H](C(C)=O)[C@@H]3N(CC5)C4)C[C@H]1[C@]2(CO)C(=O)OC
IC50 (KB [1]): 21.4 µg/mL (≈ 28.6 µM) | IC50 (KB [3]): 5.6 µg/mL (≈ 7.48 µM) | IC50 (KB [2]): 17 µg/mL (≈ 22.7 µM)
